Experimental data: EPA's ToxValDB 9.5

Key:
Rattus norvegicus = details: for LOAEL: reproduction developmental
Canidae = details: subchronic; duration: 13 weeks; Dog Other; histopathology: nonneoplastic
[1] = subchronic, duration: 90 days, oral, diet, M/F, no effects
[2] = subchronic, duration: 90 days, oral, diet, Wistar, no effects

Question: Which NOAEL (Rattus norvegicus; subchronic, duration: 90 days, oral, M/F, Sprague-Dawley, no effects) does the source give for `CC(C)(CO)C1OCC2(CO1)COC(C(C)(C)CO)OC2` (stereo not drawn) here?
Answer: 2000 mg/kg-day

Question: What does the source list for `CCCOC(=O)c1cc(O)c(O)c(O)c1` [Gallic acid n-propyl ester]?
Answer: NOAEL (Rattus norvegicus; subchronic, duration: 13 weeks, oral, diet, M/F, clinical chemistry): 1910 mg/kg-day; NOAEL (Rattus norvegicus; subchronic, duration: 90 days, oral, diet, M/F, hematological): 135 mg/kg-day

Question: `Cc1occc1SSSSc1ccoc1C` [Bis(2-methyl-3-furyl) tetrasulfide] was tested. Which NOAEL (Rattus norvegicus; subchronic, duration: 90 days, oral, diet, M/F, Wistar, no effects) did it give?
Answer: 0.56 mg/kg-day

Question: How did the NOAEL (Rattus norvegicus; [1]) turn out when `Cc1ccc2ncccc2c1` [6-Methylquinoline] was run?
Answer: 2.2 mg/kg-day

Question: `CC(C)=O` [Acetone] was tested. Which NOAEL (Rattus norvegicus; subchronic, duration: 90 days, oral, drinking water) did it give?
Answer: 900 mg/kg-day

Question: Which NOAEL (Rattus norvegicus; subchronic, duration: 90 days, oral, body weight) does the source give for `c1ccc(Oc2ccccc2)cc1` [Diphenyl oxide] here?
Answer: 15 mg/kg-day

Question: With `C=C(C)c1ccc(C)cc1` [1-Methyl-4-(prop-1-en-2-yl)benzene] as the compound, how does the NOAEL (Rattus norvegicus; subchronic, duration: 90 days) read?
Answer: 0.625 mg/kg-day

Question: For `CC(C)=CC(=O)SC(C)C` [2-Butenethioic acid, 3-methyl-, S-(1-methylethyl) ester], which NOAEL (Rattus norvegicus; subchronic, duration: 90 days, oral) is on record?
Answer: 6.63 mg/kg-day

Question: `CCCNC(=O)C(C)(C)COc1cccc2c1C(N)=NS(=O)(=O)N2` was tested. Which NOAEL (Rattus norvegicus; subchronic, duration: 90 days, oral, diet, M/F, Sprague-Dawley, no effects) did it give?
Answer: 20 mg/kg-day

Question: For `CC(C)CCCCCCCOC(=O)c1ccccc1C(=O)OCCCCCCCC(C)C` [Diisodecyl phthalate], which NOAEL (Canidae) is on record?
Answer: 15 mg/kg-day

Question: How did the LD50 (Rattus norvegicus; acute, oral, mortality) turn out when `ClC1=C(Cl)[C@]2(Cl)[C@@H]3[C@@H]4C[C@@H]([C@H]5O[C@@H]45)[C@@H]3[C@@]1(Cl)C2(Cl)Cl` [Dieldrin] was run?
Answer: 25 mg/kg-day

Question: How did the NOAEL (Rattus norvegicus; [1]) turn out when `CC(=O)CSCc1ccco1` [1-(2-Furfurylthio)propanone] was run?
Answer: 3.76 mg/kg-day

Question: How did the NOAEL (Rattus norvegicus; [2]) turn out when `COc1cc(CCCS(=O)(=O)[O-])ccc1OC(Cc1cccc(OC)c1O)CS(=O)(=O)[O-].[Ca+2]` (stereo not drawn) [Lignosulfonic acid, calcium salt] was run?
Answer: 2000 mg/kg-day

Question: For `CC1CCC2(O1)C(C)(C)CCCC2(C)O` (stereo not drawn) [6-Hydroxydihydrotheaspirane], which NOAEL (Rattus norvegicus; subchronic, duration: 90 days, oral, diet, M/F, Crj:CD, food efficiency) is on record?
Answer: 52 mg/kg-day

Question: For `Cc1occc(=O)c1O` [Maltol], which NOEL (Rattus norvegicus; chronic, duration: 2 years, oral, diet) is on record?
Answer: 100 mg/kg-day

Question: Which NOAEL (Rattus norvegicus; developmental, duration: 19 days, oral, gavage, F, Osborne-Mendel, development) does the source give for `O=S(=O)([O-])c1ccc2c(N=Nc3ccc(S(=O)(=O)[O-])c4ccccc34)c(O)c(S(=O)(=O)[O-])cc2c1.[Na+].[Na+].[Na+]` [Amaranth] here?
Answer: 15 mg/kg-day

Question: Which results are given for `CC1=C(O)C(=O)C(C)O1` (stereo not drawn) [4-Hydroxy-2,5-dimethyl-3(2H)furanone]?
Answer: NOAEL (Rattus norvegicus; chronic, duration: 2 years, M/F, body weight): 200 mg/kg-day; NOAEL (Rattus norvegicus; chronic, duration: 2 years, oral, diet, M/F, Sprague-Dawley, body weight): 200 mg/kg-day

Question: For `O=P(c1ccccc1)(c1ccccc1)c1ccccc1` [Triphenylphosphine oxide], which NOEL (Rattus norvegicus; subchronic, duration: 90 days, clinical chemistry) is on record?
Answer: 2 mg/kg-day

Question: Which NOAEL (Rattus norvegicus; subchronic, duration: 90 days, oral, diet, M/F, clinical chemistry) does the source give for `COC(=O)CCSCc1ccco1` [Methyl 3-{[(furan-2-yl)methyl]sulfanyl}propanoate] here?
Answer: 5.78 mg/kg-day

Question: `O=C(c1ccccc1)c1ccccc1` [Benzophenone] was tested. Which LOAEL (Rattus norvegicus; histopathology: nonneoplastic) did it give?
Answer: 6 mg/kg-day

Question: With `CC(C)(CO)[C@@H](O)C(=O)NCCC(=O)NCCSSCCNC(=O)CCNC(=O)[C@H](O)C(C)(C)CO` [Pantethine] as the compound, how does the NOAEL (Rattus norvegicus; chronic, duration: 54 weeks, M/F, clinical chemistry) read?
Answer: 36 mg/kg-day

Question: For `CCCCC/C=C/C=C/C(=O)NCC(C)C` [(E,E)-N-(2-Methylpropyl)-2,4-decadienamide], which NOAEL (Rattus norvegicus; subchronic, duration: 90 days, oral, diet, M/F, Sprague-Dawley, histopathology: nonneoplastic) is on record?
Answer: 10 mg/kg-day

Question: Which LOAEL (Rattus norvegicus; injection, subcutaneous, Wistar, behavior) does the source give for `Clc1cc2c(cc1Cl)Oc1cc(Cl)c(Cl)cc1O2` [2,3,7,8-Tetrachlorodibenzo-p-dioxin] here?
Answer: 2.5e-05 mg/kg-day

Question: For `Cc1occc1SSCc1ccco1` [Furfuryl 2-methyl-3-furyl disulfide], which NOAEL (Rattus norvegicus; [2]) is on record?
Answer: 0.45 mg/kg-day

Question: Which LOAEL (Rattus norvegicus; histopathology: nonneoplastic) does the source give for `Cc1ccc(C(=O)c2ccccc2)cc1` [4-Methylbenzophenone] here?
Answer: 6 mg/kg-day

Question: How did the NOAEL (Rattus norvegicus; chronic, duration: 2 years, oral, diet, M/F, Fischer 344, histopathology: neoplastic) turn out when `[Cr+3]` [Chromium (III)] was run?
Answer: 286 mg/kg-day

Question: How did the NOAEL (Rattus norvegicus; subchronic, duration: 90 days, oral, gavage, M/F, Sprague-Dawley, no effects) turn out when `c1ccc2cnccc2c1` [Isoquinoline] was run?
Answer: 3 mg/kg-day

Question: `Cc1cc(SSc2cc(C)oc2C)c(C)o1` [Furan, 3,3'-dithiobis[2,5-dimethyl-] was tested. Which NOAEL (Rattus norvegicus; subchronic, duration: 90 days, no effects) did it give?
Answer: 0.29 mg/kg-day

Question: `COc1cc(COC(=O)CCCCCCC(C)C)ccc1O` [Dihydrocapsiate] was tested. Which NOAEL (Rattus norvegicus; chronic, duration: 26 weeks, oral, gavage, M/F, Sprague-Dawley, histopathology: nonneoplastic) did it give?
Answer: 300 mg/kg-day

Question: What about the NOAEL (Rattus norvegicus; subchronic, duration: 13 weeks, oral, gavage, M/F, Sprague-Dawley, clinical chemistry) of the same compound?
Answer: 300 mg/kg-day

Question: What about the NOAEL (Rattus norvegicus; subchronic, duration: 13 weeks, oral, gavage, M/F, Sprague-Dawley, organ weight) of the same compound?
Answer: 300 mg/kg-day
